Test results published in PubChem BioAssay AID1671332.

Biological target: Serine/threonine-protein kinase Nek7 (Homo sapiens) (UniProt Q8TDX7)
Assay: inhibition of NEK7 serine/threonine kinase activity – biochemical, Z'-LYTE FRET, direct format, recombinant human, dose response (AID 1671332)

Sequence of Serine/threonine-protein kinase Nek7 (Homo sapiens) (Q8TDX7 whole entry, looked up): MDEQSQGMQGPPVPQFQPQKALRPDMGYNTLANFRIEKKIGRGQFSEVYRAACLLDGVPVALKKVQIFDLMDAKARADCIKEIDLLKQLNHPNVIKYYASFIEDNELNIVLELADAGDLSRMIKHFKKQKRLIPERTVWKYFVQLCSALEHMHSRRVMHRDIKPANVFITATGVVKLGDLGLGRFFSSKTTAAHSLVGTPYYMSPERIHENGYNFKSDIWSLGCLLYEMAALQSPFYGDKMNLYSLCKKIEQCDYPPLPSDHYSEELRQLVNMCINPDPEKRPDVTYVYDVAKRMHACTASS

CN1C(=O)C2(Cc3cn(C45CC67SSC(CO)(C(=O)N6C4Nc4ccccc45)N(C)C7=O)c4ccccc34)SSC1(CO)C(=O)N2C (stereo unspecified) gave an IC50 of 274 nM.
